This note sets out measurements from patent US20090005417A1, “Substituted Indazolyl Sulfonamide and 2,3-Dihydro-Indolyl Sulfonamide Compounds, their Preparation and Use in Medicaments” (LABORATORIOS DEL DR. ESTEVE S.A., priority 2004, published 2009).

In the experiment the target is T1, 5HT6-human recombinant receptor (Homo sapiens, UniProt P50406).
T1 construct: purchased Receptor Biology; host or cells: HEK-293 cell membranes
T1 sequence (P50406 whole entry): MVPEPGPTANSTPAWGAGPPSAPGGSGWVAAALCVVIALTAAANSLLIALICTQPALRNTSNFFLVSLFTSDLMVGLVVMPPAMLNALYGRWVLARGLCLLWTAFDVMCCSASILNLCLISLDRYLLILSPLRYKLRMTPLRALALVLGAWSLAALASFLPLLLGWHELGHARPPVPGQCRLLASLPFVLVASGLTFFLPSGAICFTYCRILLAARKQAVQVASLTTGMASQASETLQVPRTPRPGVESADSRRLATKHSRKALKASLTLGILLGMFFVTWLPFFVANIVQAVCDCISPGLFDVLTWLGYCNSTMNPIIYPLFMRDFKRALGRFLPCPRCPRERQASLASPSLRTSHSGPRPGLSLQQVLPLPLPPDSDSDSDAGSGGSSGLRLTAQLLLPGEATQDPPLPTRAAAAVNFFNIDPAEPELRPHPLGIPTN
Description: Binding to serotonin receptor 5-HT6 ([3H]-LSD radioligand). The following applies: membranes of HEK-293 cells expressing the receptor; [3H]-LSD 2.7 nM; 60 min at 37° C. On the procedure:
Cell membranes of HEK-293 cells expressing the 5HT6-human recombinant receptor were supplied by Receptor Biology. In said membranes the receptor concentration is 2.18 pmol/mg protein and the protein concentration is 9.17 mg/ml. The experimental protocol follows the method of B. L. Roth et al. [B. L. Roth, S. C. Craigo, M. S. Choudhary, A. Uluer, F. J. Monsma, Y. Shen, H. Y. Meltzer, D. R. Sibley: Binding of Typical and Atypical Antipsychotic Agents to 5-Hydroxytryptamine-6 and Hydroxytryptamine-7 Receptors. The Journal of Pharmacology and Experimental Therapeutics, 1994, 268, 1403] with the following slight changes. The respective part of the literature description is hereby incorporated by reference and forms part of the disclosure.
The commercial membrane is diluted (1:40 dilution) with the binding buffer: 50 mM Tris-HCl, 10 mM MgCl2, 0.5 mM EDTA (pH 7.4). The radioligand used is [^3H]-LSD at a concentration of 2.7 nM with a final volume of 200 μl. Incubation is initiated by adding 100 μl of membrane suspension, (≈22.9 μg membrane protein), and is prolonged for 60 minutes at a temperature of 37° C. The incubation is ended by fast filtration in a Brandel Cell Harvester through fiber glass filters made by Schleicher & Schuell GF 3362 pretreated with a solution of polyethylenimine at 0.5%. The filters are washed three times with three milliliters of buffer Tris-HCl 50 mM pH 7.4. The filters are transferred to flasks and 5 ml of Ecoscint H liquid scintillation cocktail are added to each flask. The flasks are allowed to reach equilibrium for several hours before counting with a Wallac Winspectral 1414 scintillation counter. Non-specific binding is determined in the presence of 100 μM of serotonin. Tests were made in triplicate. The inhibition constants (Ki, nM) were calculated by non-linear regression analysis using the program EBDA/LIGAND described in Munson and Rodbard, Analytical Biochemistry, 1980, 107, 220, the respective part of which is hereby incorporated by reference and forms part of the disclosure.
The binding of the substituted indazolyl sulfonamide or 2,3-dihydro-indolyl sulfonamide compounds to the 5-HT6 receptor was determined as described above.
In general, Ki refers to a measure of affinity in units of concentration, obtained from inhibition or displacement. For `CN(C)CCn1ncc2ccc(NS(=O)(=O)c3ccc4ccccc4c3)cc21` [Example 1, N-(1-(2-(dimethylamino)ethyl)-1H-indazol-6-yl)napthalene-2-sulfonamide], the Ki is 72.6 nM.

With `Cc1c(S(=O)(=O)Nc2ccc3cnn(CCN(C)C)c3c2)sc2ccc(Cl)cc12` [Example 2, 5-chloro-N-(1-(2-(dimethylamino)ethyl)-1H-indazol-6-yl)-3-methylbenzo[b]thiophene-2-sulfonamide], the inhibition constant (Ki) was 16.4 nM.

Turning to `Cc1c(S(=O)(=O)Nc2ccc3[nH]nc(C4CCN(C)CC4)c3c2)sc2ccc(Cl)cc12` [Example 4, 5-chloro-3-methyl-benzo[b]thiophene-2-sulfonic acid [3-(1-methyl-piperidin-4-yl)-1H-indazol-5-yl]-amide], the Ki turned out to be 121 nM.

With `CN(C)CCN1CCc2ccc(NS(=O)(=O)c3c(Cl)nc4sccn34)cc21` [Example 9], the Ki came out at 15.8 nM.
